Measurements as given in ChEMBL document CHEMBL4706612 (Eur J Med Chem, 2021).
pKi: −log10 of the molar value.

Assays:
[1] = Inhibition of Vibrio cholerae MetAp1a by Morrison method
[2] = Inhibition of Vibrio parahaemolyticus MetAp1a by Morrison method
[3] = Inhibition of Vibrio coralliilyticus MetAp1a by Morrison method
[4] = Inhibition of human MetAp1a by Morrison method

Q: What does the source list for `Oc1nc(-c2ccccn2)nc2c1CSCC2`?
A: pKi [1]: 4.41; pKi [2]: 4.62; pKi [3]: 5.12; pKi [4]: 6.12

Q: With `Cc1nc(-c2ccccn2)nc(SCC(=O)N2CCOCC2)c1Cl` as the molecule, how does the pKi [1] read?
A: 5.10

Q: What about the pKi [2] of the same molecule?
A: 4.90

Q: What about the pKi [4] of the same molecule?
A: 6.77

Q: With `Cc1cc(S)nc(-c2ccccn2)n1` as the molecule, how does the pKi [1] read?
A: 6.92

Q: What about the pKi [2] of the same molecule?
A: 6.70

Q: What about the pKi [3] of the same molecule?
A: 4.79

Q: What about the pKi [4] of the same molecule?
A: 6.82

Q: With `Cc1cc(Oc2ccc(Cl)cc2)nc(-c2ccccn2)n1` as the molecule, how does the pKi [1] read?
A: 6.14

Q: What about the pKi [2] of the same molecule?
A: 6.46

Q: And the pKi [4]?
A: 6.64

Q: With `Cc1nc(-c2ccccn2)nc(N(C)c2ccccc2)c1Cl` as the molecule, how does the pKi [1] read?
A: 6.31

Q: What about the pKi [2] of the same molecule?
A: 6.62

Q: What about the pKi [4] of the same molecule?
A: 6.11

Q: What does the source list for `COc1ccc(C(=O)CSc2nc(-c3ccccn3)nc(C)c2Cl)cc1`?
A: pKi [1]: 5.84; pKi [2]: 5.24

Q: With `Cc1nc(-c2ccccn2)nc(SCC(=O)c2ccc(F)cc2)c1Cl` as the molecule, how does the pKi [1] read?
A: 5.72

Q: What about the pKi [2] of the same molecule?
A: 5.72

Q: What about the pKi [4] of the same molecule?
A: 5.63

Q: With `Cc1nc(-c2ccccn2)nc(N2CCOCC2)c1Cl` as the molecule, how does the pKi [1] read?
A: 6.06

Q: And the pKi [2]?
A: 5.79

Q: And the pKi [4]?
A: 6.96

Q: What does the source list for `CC(C)S(=O)(=O)c1cnc(-c2ccccn2)nc1N`?
A: pKi [1]: 7.22; pKi [2]: 4.46; pKi [3]: 4.31; pKi [4]: 6.66

Q: Which results are given for `Cc1nc(-c2ccccn2)nc(NCCNc2cccc(C(F)(F)F)n2)c1Cl`?
A: pKi [1]: 5.45; pKi [2]: 5.10

Q: With `Cc1nc(-c2ccccn2)nc(NC2CCN(c3ncc(C(F)(F)F)cc3Cl)CC2)c1Cl` as the molecule, how does the pKi [1] read?
A: 5.32

Q: And the pKi [2]?
A: 5.34

Q: With `Cc1nc(-c2ccccn2)nc(N2CCN(c3ncnc4scc(-c5ccccc5)c34)CC2)c1Cl` as the molecule, how does the pKi [1] read?
A: 6.32

Q: What about the pKi [2] of the same molecule?
A: 5.71

Q: With `Cc1nc(-c2ccccn2)nc(N2CCCN(Cc3ccc(Cl)cc3Cl)CC2)c1Cl` as the molecule, how does the pKi [1] read?
A: 6.14

Q: What about the pKi [2] of the same molecule?
A: 5.49

Q: What about the pKi [4] of the same molecule?
A: 6.07

Q: With `Oc1cc(C(F)(F)F)nc(-c2ccccn2)n1` as the molecule, how does the pKi [1] read?
A: 6.82

Q: And the pKi [2]?
A: 7.05

Q: And the pKi [3]?
A: 4.88

Q: And the pKi [4]?
A: 7.00

Q: With `FC(F)(F)c1nc(-c2ccccn2)ncc1-c1nnnn1-c1ccc(Cl)cc1` as the molecule, how does the pKi [2] read?
A: 4.97

Q: With `FC(F)(F)c1cccc(-c2nc(-c3ccccn3)ncc2-c2nnnn2-c2ccccc2)c1` as the molecule, how does the pKi [1] read?
A: 5.95

Q: And the pKi [2]?
A: 5.56

Q: And the pKi [4]?
A: 4.36

Q: With `Cc1nc(-c2ccccn2)nc(N2CCN(C)CC2)c1Cl` as the molecule, how does the pKi [1] read?
A: 6.70

Q: What about the pKi [2] of the same molecule?
A: 6.32

Q: And the pKi [4]?
A: 6.54

Q: With `Cc1cc(Oc2cc(Cl)cc(Cl)c2)nc(-c2ccccn2)n1` as the molecule, how does the pKi [1] read?
A: 7.30

Q: What about the pKi [2] of the same molecule?
A: 6.55

Q: And the pKi [4]?
A: 5.38

Q: What does the source list for `Cc1cc(O)nc(-c2ccccn2)n1`?
A: pKi [1]: 6.52; pKi [2]: 6.68; pKi [3]: 5.17; pKi [4]: 6.21

Q: With `CSc1nc(-c2ccccn2)nc(N)c1C#N` as the molecule, how does the pKi [1] read?
A: 6.17

Q: What about the pKi [2] of the same molecule?
A: 6.89

Q: And the pKi [4]?
A: 6.68

Q: With `Cc1nc(-c2ccccn2)nc(O)c1Cc1c(Cl)cccc1Cl` as the molecule, how does the pKi [1] read?
A: 6.64

Q: What about the pKi [2] of the same molecule?
A: 6.80

Q: What about the pKi [3] of the same molecule?
A: 4.99

Q: With `Cc1nc(-c2ccccn2)nc(O)c1CC1CC1` as the molecule, how does the pKi [1] read?
A: 6.49

Q: What about the pKi [2] of the same molecule?
A: 7.10

Q: And the pKi [3]?
A: 5.03

Q: And the pKi [4]?
A: 6.89

Q: With `FC(F)(F)c1cc(Nc2cc(Cl)cc(Cl)c2)nc(-c2ccccn2)n1` as the molecule, how does the pKi [1] read?
A: 7.22

Q: What about the pKi [2] of the same molecule?
A: 6.85

Q: With `CCCCCc1c(C)nc(-c2ccccn2)nc1O` as the molecule, how does the pKi [1] read?
A: 6.14

Q: And the pKi [2]?
A: 5.48

Q: And the pKi [3]?
A: 4.94

Q: What about the pKi [4] of the same molecule?
A: 7.15

Q: With `C=CC(C)c1c(O)nc(-c2ccccn2)nc1CCC` (centres undefined) as the molecule, how does the pKi [1] read?
A: 6.51

Q: And the pKi [2]?
A: 6.82

Q: And the pKi [3]?
A: 5.14

Q: And the pKi [4]?
A: 7.10

Q: With `CCCc1nc(-c2ccccn2)nc(O)c1CC1CC1` as the molecule, how does the pKi [1] read?
A: 7.15

Q: And the pKi [2]?
A: 5.95

Q: What about the pKi [3] of the same molecule?
A: 5.04

Q: What about the pKi [4] of the same molecule?
A: 5.86

Q: What does the source list for `Nc1cc(O)nc(-c2ccccn2)n1`?
A: pKi [1]: 7.10; pKi [2]: 6.62; pKi [3]: 4.93; pKi [4]: 6.19

Q: With `CCOC(=O)c1cnc(-c2ccccn2)nc1O` as the molecule, how does the pKi [1] read?
A: 6.96

Q: And the pKi [2]?
A: 5.85

Q: What about the pKi [3] of the same molecule?
A: 5.23

Q: What about the pKi [4] of the same molecule?
A: 6.29

Q: With `CC(=O)Nc1cc(O)nc(-c2ccccn2)n1` as the molecule, how does the pKi [1] read?
A: 7.05

Q: What about the pKi [2] of the same molecule?
A: 5.95

Q: What about the pKi [3] of the same molecule?
A: 5.29

Q: And the pKi [4]?
A: 5.83

Q: Which results are given for `Cc1nc(-c2ccc(C(F)(F)F)cn2)nc(N2CCCCC2)c1Cl`?
A: pKi [1]: 5.34; pKi [4]: 4.25

Q: What does the source list for `Cc1nc(-c2ccc(C(F)(F)F)cn2)nc(Sc2ccc(Cl)cc2)c1Cl`?
A: pKi [1]: 5.16; pKi [2]: 4.79

Q: With `c1ccc(-c2ccccn2)nc1` as the molecule, how does the pKi [1] read?
A: 5.55

Q: And the pKi [2]?
A: 5.54

Q: And the pKi [3]?
A: 5.55

Q: And the pKi [4]?
A: 6.41

Q: Which results are given for `Cc1nc(-c2ccccn2)nc(N2CCN(CCO)CC2)c1Cl`?
A: pKi [1]: 6.22; pKi [2]: 5.43

Q: With `Cc1nc(-c2ccccn2)nc(NCCc2ccccc2)c1Cl` as the molecule, how does the pKi [1] read?
A: 6.29

Q: And the pKi [2]?
A: 5.43

Q: Which results are given for `CCN(CC)C(=O)Oc1nc(-c2ccccn2)nc(COC)c1CC1CC1`?
A: pKi [1]: 5.61; pKi [2]: 5.55; pKi [4]: 6.35

Q: With `COCc1nc(-c2ccccn2)nc(O)c1CC1CC1` as the molecule, how does the pKi [1] read?
A: 6.80

Q: What about the pKi [2] of the same molecule?
A: 6.60

Q: What about the pKi [3] of the same molecule?
A: 4.56

Q: What about the pKi [4] of the same molecule?
A: 6.54

Q: With `CCCc1nc(-c2ccccn2)nc(OC(=O)N(C)C)c1Cc1c(F)cccc1Cl` as the molecule, how does the pKi [1] read?
A: 7.15

Q: What about the pKi [2] of the same molecule?
A: 6.22

Q: What about the pKi [4] of the same molecule?
A: 6.74
